Experiment: Solubility/stability of CTA-acid salts in water
Format: physicochemical
Conditions: CTA-acid dispersed in water at 1 wt. %, dissolved by adding the base/amine; solubility checked again after 48 hrs. at room temperature
Protocol: These new CTA-“bases” were made using the same procedure shown above (“Formation of CTA-Acid Salt(s)”) starting with CTA-acid. The stability of several amines was tested by dispersing CTA-acid in water at 1 wt. % CTA-acid, and then dissolution by adding the amine.

Row | Structure (SMILES) | Soluble
1 | NCCOCCOCCN | no
2 | CC(C)CCCCCCCCCOCCCN | no
3 | NCCOCCO | yes

Second part, the compound after the results:

Row | Soluble | Structure (SMILES)
4 | no | O=C1CCCN1CCO
5 | yes | NCCNCCO

Reference: US10280101B2, “Water soluble chain transfer agents” (The Lubrizol Corporation, priority 2015, dated 2019)
